Results reported in patent US9618511B2, “Methods and compositions for treating alzheimer's disease” (Eleanore Bennett Charitable Trust #2, priority 2008, dated 2017).

How the values were obtained:
[1] = molecular target: T1, c-AMP-dependent protein kinase A (PKA) (Bos taurus, UniProt P00517); assay: PKA activity assay (GSK-3 substrate phosphorylation); format: biochemical, bovine; settings: Aβ 10 μM, PKA 2U
T1 construct: purified c-AMP-dependent protein kinase A (PKA, Promega) from bovine heart; purchased Promega; host or cells: bovine heart (tissue-purified)
Method: Recombinant Phosphatase and Tensin Homolog (PTEN; R & D Systems, Minneapolis, Minn.), purified PP2A from human erythrocytes (Upstate, Temecula, Calif.), and purified c-AMP-dependent protein kinase A (PKA, Promega) from bovine heart were stored at −20 and used freshly. PKA inhibitor (PKI, Biosource) and PI3K inhibitor, LY294002 (Cell Signaling) were diluted to 20 or 10 μM in kinase buffer. Antibodies used were: anti-cdk4 (polyclonal), Akt, Actin (polyclonal), and IRa (polyclonal) (Santa Cruz); p-Akt (polyclonal; Ser473 and Thr308), p-GSK-3α/0 (polyclonal; Ser21/9), GSK-30 (polyclonal), IRP (monoclonal), p-Tyrosine (monoclonal), and p-PDK (polyclonal, Ser241) (Cell Signaling, Danvers, Mass.); IRS-1 (monoclonal) and PDK (monoclonal) (BD Biosciences); PI3K (polyclonal, p85) and SGK (polyclonal) (Upstate, Temecula, Calif.); Rictor (polyclonal) (Bethyl Laboratories, Montgomery, Tex.); 6E10 (monoclonal; Covance Co.); R1282 (polyclonal; gift from Dr. Selkoe's lab). Phospholipase A2 (PLA2) was from Sigma. The lipids phosphatidylinositol-tris-3,4,5-phosphate, dipalmitoyl, (PIP3) (Matreya LLC, Pleasant Gap, Pa.), and D-myo-Phosphatidylinositol (PtdIns; PI) (Echelon, Salt Lake City, Utah) were diluted into water or CHCl3:MeOH:H2O (1:2:0.8), aliquoted into 100 μg vials and stored at −20° C. […]

C2C12 myotubes = assay: Extracellular peptide or insulin treatment of C2C12 myotubes, western blot of Akt signaling; format: cell-based, mouse
Method: The prior cell-based and in vitro experiments are relevant to […] Aβ effects. To determine the specificity of Akt inhibition by […] Aβ, C2C12 myotubes were cultured, and treated with extracellular Aβ25-35, Aβ35-25, Aβ1-42 and Aβ42-1 for 24 hours. In the last 30 minutes before harvest, insulin was added (0.1 μg/ml). While p-Akt (Ser473) and p-GSK-3 α/β levels were increased by insulin treatment (FIG. 9C, lane 2 vs. 1), they were not affected by any of the Aβ treatments. […] There were also no significant changes in p-Akt (Ser473) levels (data not shown). […] PDK itself is subject to phosphorylation (e.g., at Ser 241) and several authors feel that it is constitutively phosphorylated and thus ‘primed’ (Casamayor, A., Morrice, N. A., and Alessi, D. R., 1999, Phosphorylation of Ser-241 is essential for the activity of 3-phosphoinositide-dependent protein kinase-1: identification of five sites of phosphorylation in vivo, Biochem J 342 (Pt 2):287-292). The experiments described herein indicate that p-PDK levels are constitutively high in C2C12 cells and not boosted further by insulin action (FIG. 9E, top). p-PDK levels were not modulated by extracellular (FIG. 9E lower panel) or intracellular Aβ expression (not shown).
In FIG. 9C C2C12 myotubes were bath exposed to AP25-35, reverse AP35-25, AP1-42 and reverse Aβ42-1 peptides for 24 hours before treatment with insulin (0.1 μg/ml, 15 min) Whole cell extracts were subjected to Western analysis for p-Akt (Ser473) (Akt activation) and total Akt levels (top) as well as for endogenous levels of pGSK-3a/p, indicative of Akt activity, and total GSK-3β (lower two blots). […] The increase was not affected by pre-treatment with extracellular AR.
In FIG. 9D C2C12 myotube cultures were exposed to increasing doses of A[i1-42 (0, 10 and 25 μM) for 2 hours before treatment with insulin (0, 20, 100 and 500 ng/ml) for 15 min Harvested cell extracts were used for western blot for p-Akt (Thr308).

Aβ42: synthetic 42 amino acid β-amyloid peptide, forward sequence, freshly prepared, predominantly monomeric (BioSource)
PKA phosphorylation of GSK-3 α/β substrate [1]: not inhibited | p-PDK (Ser241) levels (C2C12 myotubes; extracellular 1-100 nM, 2 or 24 hours, then insulin 500 ng/ml 30 min): remain unaffected | p-Akt (Ser473) and p-GSK-3 α/β levels after insulin (C2C12 myotubes; extracellular peptide 24 hours, then insulin 0.1 μg/ml): not affected | p-Akt (Thr308) levels, insulin dose response (C2C12 myotubes; extracellular, up to 25 μM in the media, insulin 20, 100, 500 ng/ml): did not affect
